Reference: patent US20120125325A1, “THE USE OF AMLEXANOX IN THE THERAPY OF NEUTROPHIL-DRIVEN DISEASES” (priority 2009, published 2012)

What was measured:
[1] = test system: LPS-induced neutrophilia in the airways of mice; experiment: LPS-induced airway neutrophilia in mice, inhaled (intra-tracheal) dosing (Example 2); details: for piloerection following LPS aerosol exposure: also seen in vehicle treated animals; for tolerance of dosing: mouse, in vivo
Description: • n=8 • Group 1—sham • Group 2—vehicle (10% DMSO) • Group 3—amlexanox (0.3 mg/mL) • Group 4—amlexanox (3 mg/mL) • Group 5—amlexanox (10 mg/mL) • Group 6—amlexanox (15 mg/mL) • Group 7—salbutamol (1 mg/mL) • Group 8—amlexanox (0.3 mg/mL)+salbutamol (1 mg/mL) • Group 9—amlexanox (3 mg/mL)+salbutamol (1 mg/mL) • Group 10—dexamethasone (1.0 mg/mL) • Group 11—fluticasone (1.0 mg/mL) • N.B. All test compounds to be administered by intra-tracheal dosing (using a PennCentury device) 1 hour before endotoxin exposure.
Non-fasted mice were weighed, individually identified on the tail with a permanent marker and administered by intra tracheal administration with doses of either vehicle, amlexanox, fluticasone, dexamethasone or salbutamol at time point T=−1 with respect to the start of LPS treatment (see above for group details). At T=0, mice were placed into an exposure chamber and exposed to LPS. The LPS was prepared in a solution of 0.5 mg/ml and aerosolised using a De Vibliss ultrasonic nebuliser 2000, so that 7 ml of the solution was aerosolised during the 30 min exposure period.
8 hours after LPS challenge the trachea was cannulated and BALF extracted. The procedure for this involved infusing and withdrawing 1 mL of PBS into the lungs via a tracheal catheter. This procedure was repeated to give a yield of approximately 2 mL lavage fluid. The BALF was aliquoted for analysis of neutrophilia and the remaining BALF stored at −80° C. for future cytokine analysis if required.
Total and differential white cell counts in the BAL fluid samples were measured using a Neubaur haemocytometer. Cytospin smears of the BAL fluid samples were prepared by centrifugation at 1200 rpm for 1 min at room temperature and stained using a DiffQuik stain system (Dade Behring).
Cells were counted blind using oil immersion microscopy.
Data were reported as total and differential number of cells per mL of BALF, mean±S.E.M. (standard error of the mean).
Inter-group deviations were statistically analysed by a one-way analysis of variance (ANOVA). In the case of significant difference in the mean values among the different levels of treatment, comparisons versus the vehicle group were carried out using the Dunnett's test. In case the equal variance test fails, a Kruskal-Wallis one-way analysis of variance on ranks followed by a Dunn's test were used. p<0.05 will be considered statistically significant.
Test compounds were administered in a dose volume of 20 μL using a FMJ-250 PennCentury device for intra-tracheal dosing.

[2] = test system: LPS-induced neutrophilia in the airways of mice; experiment: LPS-induced airway neutrophilia in mice, oral amlexanox (Example 1); type: in vivo; details: amlexanox 1-30 mg/kg p.o. 1 hour before LPS aerosol, BALF 8 hours after LPS
Description: • n=8 • Group 1—sham (control) • Group 2—Vehicle (10% DMSO, p.o.) • Group 3—amlexanox (1 mg/kg, p.o.) • Group 4—amlexanox (3 mg/kg, p.o.) • Group 5—amlexanox (10 mg/kg, p.o.) • Group 6—amlexanox (30 mg/kg, p.o.) • Group 7—dexamethasone (1 mg/ml) • p.o.=per orus (orally)
N.B. All test compounds were administered via oral gavage using a ball tipped stainless steel delivery cannulae or via intra-tracheal dosing (using a PennCentury devise). In all cases this was 1 hour before endotoxin exposure.
In all cases the cells were counted blind using oil immersion microscopy.
Amlexanox dosed via oral gavage was administered in a dose volume of 0.1 ml using a ball tipped stainless steel delivery cannule.

leukotriene B4 = details: Taniguchi et al, 1990, and Kimishoto et al, 2006; cited from earlier work

SMILES	piloerection following LPS aerosol exposure ([1]; mice)	tolerance of dosing [1]	inhibition of LPS-induced neutrophilia (cells in bronchoalveolar lavage fluid, FIG. 1) [2]	inhibition of neutrophilia (total cells and neutrophils in bronchoalveolar lavage fluid, FIGS. 2 to 6) ([1]; mice, amlexanox 0.3-15 mg/mL, 20 μL intra-tracheal 1 hour before LPS aerosol, BALF 8 hours after LPS)	effect as a bronchodilator (Bronchodilator effect)	LTB4 production (leukotriene B4)
C[C@@H]1C[C@H]2[C@@H]3CCC4=CC(=O)C=C[C@]4(C)[C@@]3(F)[C@@H](O)C[C@]2(C)[C@@]1(O)C(=O)CO [dexamethasone]	noticeable degree of piloerection	good tolerance of dosing				
CC(C)(C)NCC(O)c1ccc(O)c(CO)c1 (stereo not drawn) [salbutamol]	noticeable degree of piloerection	good tolerance of dosing				
C[C@@H]1C[C@H]2[C@@H]3C[C@H](F)C4=CC(=O)C=C[C@]4(C)[C@@]3(F)[C@@H](O)C[C@]2(C)[C@@]1(O)C(=O)SCF [fluticasone]	noticeable degree of piloerection	good tolerance of dosing				
CC(C)c1ccc2oc3nc(N)c(C(=O)O)cc3c(=O)c2c1 [amlexanox]	noticeable degree of piloerection	good tolerance of dosing	effective at inhibiting LPS-induced neutrophilia	inhibits neutrophilia	little or no effect as a bronchodilator	increase LTB4 production
